Structures are written as SMILES. Where two headings read alike, the source gives them in different places. A value given as a limit tells only on which side of the number the result lay.

Among the data in patent US9827228B2, “Opioid receptor modulators and use thereof” (priority 2015, dated 2017) are AUC and EC50 values, retold here.

The target in this assay is T1, hMOR (Homo sapiens, UniProt P35372).
T1 construct: host or cells: CHO-K1
Nature of the assay: cell-based. Format: cell-based. Conditions: for AUC: AUC of [Ca2+]i fluorescence. How it is done:
Chinese hamster ovary (CHO)-K1 cells expressing hMOR and Gα15 (CHO-K1/MOR/Gα15) were cultured in F12 medium (GIBCO) supplemented with 10 μg/mL Hygromycin B (Invivogen), 20 μg/mL Zeocin (Invivogen) and P/S/F (100 units/mL penicillin, 100 μg/mL streptomycin, 10% fetal bovine serum). The cultures were incubated at 37° C. in a humidified 5% CO2 incubator.
One day prior to running the assay, CORNING® black 96-well assay plates having a clear flat bottom were coated with a 0.1 mg/mL Poly-L-Lysine solution. CHO-K1/MOR/Gα15 cells were suspended in F12 medium and plated at a density of about 8×10^4 cells/well in 200 μL medium. Cells were incubated under a humidified atmosphere of 10% CO2 at 37° C. overnight to reach an 80-90% confluent cell monolayer before the assay. On the day of the assay, 150 μL medium was removed from each well of the plates. To each well were added FLIPR® calcium assay reagents (Molecular Devices Corporation, Sunnyvale, Calif., USA; 50 μL) dissolved in 1× assay buffer (HBSS: KCl 5 mM, KH2PO4 0.3 mM, NaCl 138 mM, NaHCO3 4 mM, Na2HPO4 0.3 mM, d-glucose 5.6 mM, with additional 20 mM HEPES and […], pH 7.4) and 2.5 mM probenecid. After incubation at 37° C. for 1 hour, a test compound, alone or together with naloxone (a MOR antagonist), was also added to each well. Using a FlexStationlll instrument (Molecular Devices Corp.), increments of the [Ca^2+]i fluorescence after robotic injection of the cell suspension were monitored at 1.52 s intervals using the excitation wavelength of 485 nm and the emission wavelength of 525 nm. The [Ca^2+]i fluorescence was measured up to 90 s after the injection. The fluorescence intensity from 6 to 12 wells of cells were averaged and the relative amount of [Ca^2+]i release was determined by integrating the AUC of the [Ca^2+]i fluorescence averages.
A CHO-K1 cell line expressing MOR and Gα15 (GenScript) was used to set up a sensitive high-throughput screen (HTS) system. […] The HTS was performed in the absence or presence of naloxone (an opioid antagonist; 20 nM), to identify AAMs.

Setting [1] is: combined with naloxone, CHO-K1/MOR/Gα15 cells.
The mark [2] stands for this setting: combined with naloxone, CHO-K1/MOR/Gα15 cells, read-out: EC50.
Where [3] appears, read: EC50, combined with naloxone, CHO-K1/MOR/Gα15 cells.

T1 sequence (P35372 whole entry): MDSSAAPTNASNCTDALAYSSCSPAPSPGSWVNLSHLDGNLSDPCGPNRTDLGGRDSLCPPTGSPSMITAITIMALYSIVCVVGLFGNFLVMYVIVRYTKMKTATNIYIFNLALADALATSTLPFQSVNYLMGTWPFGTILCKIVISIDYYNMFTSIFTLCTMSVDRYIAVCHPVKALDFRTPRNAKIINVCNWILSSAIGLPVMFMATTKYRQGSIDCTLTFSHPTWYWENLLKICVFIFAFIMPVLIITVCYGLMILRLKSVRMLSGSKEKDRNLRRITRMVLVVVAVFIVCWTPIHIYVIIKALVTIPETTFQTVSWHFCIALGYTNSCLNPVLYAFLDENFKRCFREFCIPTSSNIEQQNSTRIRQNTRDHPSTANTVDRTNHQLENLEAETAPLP

A word on the EC50: it is the midpoint of the concentration-response curve. Consider `COc1cccc(C)c1Nc1nc(-c2sc(C)nc2C)cs1` [Compound 4, N-(2-Methoxy-6-methylphenyl)-2′,4′-dimethyl-4,5′-bi-1,3-thiazol-2-amine], for which, under setting [1], the AUC result is on record as “+ (+: >5000)”. Further, under setting [2], the EC50 is > 10 µM.

Turning to `Cc1nc(C)c(-c2csc(Nc3ccccc3Oc3ccccc3)n2)s1` [Compound 6, N-(2-Phenoxyphenyl)-2′,4′-dimethyl-4,5′-bi-1,3-thiazol-2-amine], the AUC entry under setting [1] is reported as “− (−: <5000)”. Moreover, the half-maximal effective concentration (EC50) under setting [2] is > 10 µM.

On to `Cc1nc(C)c(-c2csc(Nc3ccccc3Cl)n2)s1` [Compound 8, N-(2-Chlorophenyl)-2′,4′-dimethyl-4,5′-bi-1,3-thiazol-2-amine], for which, under setting [1], the AUC result is “− (−: <5000)”. Besides, under setting [2], the EC50 was > 10 µM.

Turning to `Cc1nc(C)c(-c2csc(Nc3ccccc3F)n2)s1` [Compound 9, N-(2-Fluorophenyl)-2′,4′-dimethyl-4,5′-bi-1,3-thiazol-2-amine], under setting [1], the AUC result was “− (−: <5000)”. In addition, under setting [2], the EC50 is > 10 µM.

Consider `Cc1nc(C)c(-c2csc(Nc3cc(F)ccc3C)n2)s1` [Compound 10, N-(5-Fluoro-2-methylphenyl)-2′,4′-dimethyl-4,5′-bi-1,3-thiazol-2-amine], for which, under setting [1], the AUC result is reported as “− (−: <5000)”. Moreover, the EC50 under setting [2] was > 10 µM.

Take `COc1ccc(C)c(Nc2nc(-c3sc(C)nc3C)cs2)c1` [Compound 12, N-(5-Methoxy-2-methylphenyl)-2′,4′-dimethyl-4,5′-bi-1,3-thiazol-2-amine]: under setting [1], the AUC result is listed as “− (−: <5000)”. Besides, under setting [2], the EC50 is > 10 µM.

Take `COc1ccc(Nc2nc(-c3sc(C)nc3C)cs2)c(OC)c1` [Compound 14, N-(2,4-Dimethoxyphenyl)-2′,4′-dimethyl-4,5′-bi-1,3-thiazol-2-amine]: under setting [1], the AUC entry is recorded as “+ (+: >5000)”. Moreover, the EC50 under setting [2] is > 10 µM.

`Cc1nc(C)c(-c2csc(Nc3cc(Cl)ccc3C)n2)s1` [Compound 15, N-(5-Chloro-2-methylphenyl)-2′,4′-dimethyl-4,5′-bi-1,3-thiazol-2-amine]: under setting [1], the AUC result is “− (−: <5000)”. Also, the EC50 under setting [2] was > 10 µM.

Take `Cc1cc(C)c(Nc2nc(-c3sc(C)nc3C)cs2)c(C)c1` [Compound 17, 2′,4′-Dimethyl-N-(2,4,6-trimethylphenyl)-4,5′-bi-1,3-thiazol-2-amine]: the AUC result under setting [1] was “+ (+: >5000)”. For the same compound, the EC50 is < 10 µM (EC50, combined with naloxone) and 3 to 10 µM under setting [3].

`Cc1nc(C)c(-c2csc(Nc3cc(Br)ccc3C)n2)s1` [Compound 19, N-(5-Bromo-2-methylphenyl)-2′,4′-dimethyl-4,5′-bi-1,3-thiazol-2-amine]: the AUC result under setting [1] was “− (−: <5000)”. In addition, the EC50 under setting [2] was > 10 µM.

As for `Cc1nc(C)c(-c2csc(Nc3cccc(F)c3C)n2)s1` [Compound 21, N-(3-Fluoro-2-methylphenyl)-2′,4′-dimethyl-4,5′-bi-1,3-thiazol-2-amine], the AUC entry under setting [1] is reported as “+ (+: >5000)”. For the same compound, the EC50 under setting [2] was > 10 µM.

Consider `Cc1nc(C)c(-c2csc(Nc3c(C(C)C)cccc3C(C)C)n2)s1` [Compound 23, N-(2,6-Diisopropylphenyl)-2′,4′-dimethyl-4,5′-bi-1,3-thiazol-2-amine], for which the AUC result under setting [1] was “− (−: <5000)”. Further, under setting [2], the EC50 was > 10 µM.

Regarding `Cc1ccc(C)c(Nc2nc(-c3sc(C)nc3C)cs2)c1` [Compound 25, N-(2,5-Dimethylphenyl)-2′,4′-dimethyl-4,5′-bi-1,3-thiazol-2-amine], under setting [1], the AUC result was “− (−: <5000)”. The concentration giving a half-maximal response (EC50) under setting [2] was > 10 µM.

As for `COc1cc(C)c(Nc2nc(-c3sc(C)nc3C)cs2)cc1OC` [Compound 27, N-(4,5-Dimethoxy-2-methylphenyl)-2′,4′-dimethyl-4,5′-bi-1,3-thiazol-2-amine], the AUC entry under setting [1] is listed as “− (−: <5000)”. In addition, the EC50 under setting [2] is > 10 µM.

As to `Cc1ccc(Nc2nc(-c3sc(C)nc3C)cs2)c(C)c1` [Compound 29, N-(2,4-Dimethylphenyl)-2′,4′-dimethyl-4,5′-bi-1,3-thiazol-2-amine], the AUC result under setting [1] is given as “+ (+: >5000)”. Also, the EC50 reads like this: (EC50, combined with naloxone) < 10 µM; under setting [3], 3 to 10 µM.

In the case of `Cc1nc(C)c(-c2csc(Nc3ccc(F)cc3C)n2)s1` [Compound 31, N-(4-Fluoro-2-methylphenyl)-2′,4′-dimethyl-4,5′-bi-1,3-thiazol-2-amine], the AUC entry under setting [1] is given as “− (−: <5000)”. The EC50 under setting [2] is > 10 µM.

`Cc1nc(C)c(-c2csc(Nc3c(C)cccc3F)n2)s1` [Compound 33, N-(2-Fluoro-6-methylphenyl)-2′,4′-dimethyl-4,5′-bi-1,3-thiazol-2-amine]: the AUC entry under setting [1] is listed as “+ (+: >5000)”. The EC50 (EC50, combined with naloxone) is < 10 µM and the EC50 under setting [3] is 3 to 10 µM.

In the case of `COc1ccc(Nc2nc(-c3sc(C)nc3C)cs2)c(C)c1` [Compound 35, N-(4-Methoxy-2-methylphenyl)-2′,4′-dimethyl-4,5′-bi-1,3-thiazol-2-amine], the AUC entry under setting [1] is given as “+ (+: >5000)”. In addition, under setting [2], the EC50 was > 10 µM.

`COc1cc(Nc2nc(-c3sc(C)nc3C)cs2)cc(OC)c1OC` [Compound 37, 2′,4′-Dimethyl-N-(3,4,5-trimethoxyphenyl)-4,5′-bi-1,3-thiazol-2-amine]: under setting [1], the AUC entry is “− (−: <5000)”. In addition, the EC50 under setting [2] is > 10 µM.

Consider `Cc1cc(C)cc(Nc2nc(-c3sc(C)nc3C)cs2)c1` [Compound 39, N-(3,5-Dimethylphenyl)-2′,4′-dimethyl-4,5′-bi-1,3-thiazol-2-amine], for which the AUC result under setting [1] is “− (−: <5000)”. The EC50 under setting [2] is > 10 µM.

On to `Cc1nc(C)c(-c2csc(Nc3c(C)cccc3C)n2)s1` [Compound 41, N-(2,6-Dimethylphenyl)-2′,4′-dimethyl-4,5′-bi-1,3-thiazol-2-amine], for which, under setting [1], the AUC result was “− (−: <5000)”. Moreover, the EC50 under setting [2] is > 10 µM.

`Cc1nc(C)c(-c2csc(Nc3ccc(Br)cc3C)n2)s1` [Compound 42, N-(4-Bromo-2-methylphenyl)-2′,4′-dimethyl-4,5′-bi-1,3-thiazol-2-amine]: the AUC entry under setting [1] was “− (−: <5000)”. The EC50 under setting [2] is > 10 µM.

Turning to `Cc1nc(C)c(-c2csc(Nc3ccc(Br)cc3C(F)(F)F)n2)s1` [Compound 43, N-[4-Bromo-2-(trifluoromethyl)phenyl]-2′,4′-dimethyl-4,5′-bi-1,3-thiazol-2-amine], the AUC entry under setting [1] is listed as “+ (+: >5000)”. For the same compound, the EC50 under setting [2] is > 10 µM.

For `CC(=O)c1ccc(Nc2nc(-c3sc(C)nc3C)cs2)cc1` [Compound 44, 1-{4-[(2′,4′-Dimethyl-4,5′-bi-1,3-thiazol-2-yl)amino]phenyl}ethanone], under setting [1], the AUC result is recorded as “− (−: <5000)”. Further, the EC50 under setting [3] is > 10 µM.

Regarding `CCc1cccc(CC)c1Nc1nc(-c2sc(C)nc2C)cs1` [Compound 45, N-(2,6-Diethylphenyl)-2′,4′-dimethyl-4,5′-bi-1,3-thiazol-2-amine], the AUC result under setting [1] is listed as “− (−: <5000)”. The EC50 reads like this: (EC50, combined with naloxone) < 10 µM; under setting [3], 1 to 3 µM.

Regarding `CCc1cccc(C)c1Nc1nc(-c2sc(C)nc2C)cs1` [Compound 47, N-(2-Ethyl-6-methylphenyl)-2′,4′-dimethyl-4,5′-bi-1,3-thiazol-2-amine], the AUC entry under setting [1] is “+ (+: >5000)”. The EC50 is < 10 µM (EC50, combined with naloxone) and 1 to 3 µM under setting [3].
